Results from patent US8497298B2, “Use of benzo-fused heterocycle sulfamide derivatives for lowering lipids and lowering blood glucose levels” (Janssen Pharmaceutica NV, priority 2005, dated 2013).

What was measured:
[1] = tested on: db/db mice; test: Diabetic db/db Mouse In Vivo Assay (Example 13); settings: female db/db mice, A300 mg/kg oral gavage once daily
Text: Db/db mice are known in the art to be susceptible to Type II diabetes (Sharma K, McCue P, Dunn S R. Am J Physiol Renal Physiol. 2003 June;284(6):F1138-44). The Db/db mice are also known in the art to be a useful model for dylipidemia.
Female db/db mice (C57BL/6J-Lep^db/db, Jackson Laboratories, Bar Harbor, Me., USA) were received at 8 weeks of age and single-housed and fed with regular chow diet. Blood was collected by tail puncture and glucose was monitored with a glucometer (OneTouch Basic, Lifescan, Newtown, Pa.).
Mice at 10 weeks of age were randomized into treatment groups based on glucose values (first criterion, average of 250 mg/dl) and body weight (second criterion, average of 37 gram). The mice were orally gavaged once daily (0.2 ml at 1500-1700 hour) with vehicle control (0.5% methylcellulose, pH7.4) and vehicle containing test compound (A300 mg/kg). On day 11, the mice were fasted for 4 hr during light cycle (food was removed 0600-1000 hour) and blood glucose levels were measured through tail puncture with a glucometer at 1000 hour. The mice were then anaesthetized with sodium pentobarbital (1 ml/kg, i.p, Sleepaway, Fort Dodge, Iowa) and blood was drawn via cardiac puncture and collected into heparinized tubes.
White adipose tissue (WAT) (retroperitoneal fat) and skeletal muscle (gastrocnemius and soleus muscle) were dissected and weighed. Plasma samples were obtained by centrifuge at 2,000 g for 15 minutes at 4° C. and subjected to measurement of insulin, HDL cholesterol and triglyceride.
Data shown below are expressed as the mean and standard error calculated using 9-10 mice per treatment group. The 2 tailed Student's t-Tests were used for statistic analysis. All animal studies complied with the guideline of the Institutional Animal Care and Use Committee.

[2] = tested on: db/db mice; test: Female db/db Mouse Assay, Study A: single dose part and dose response part (Example 14); format: in vivo
Text: 0.5% Hydroxypropyl Methylcellulose (Methocel) used as vehicle/control.
Db/db mice are susceptible to Type 2 diabetes. […] All of the mice were quarantined for a period of one week before transfer to the animal procedure room. A drop of blood (about 2 microliters) was collected by tail puncture and glucose concentration was detected with a glucometer (OneTouch UltraSmart, Lifescan, Milpitas, Calif.). […] Animals were separated and single housed at least three days prior to the drug treatments to allow acclimation to the new surroundings.
In the second, dose response part of Study A, 48 mice were allocated into 4 treatment groups of 12 mice each.
The dosing volume was 5 mL/kg body weight (0.2 mL for 40 gram mice). The mice were fed ad lib throughout the study. A necropsy was completed 18 hours after last dosing.
Blood glucose levels were measured from blood collected through tail puncture using a glucometer at 1000 hour. The mice were anaesthetized with sodium pentobarbital (1 ml/kg, intraperitoneal [i.p.] injection, SleepAway, Fort Dodge, Iowa) and blood was drawn via cardiac puncture using 1 mL syringe and collected into heparinized tubes. White adipose tissues (WAT) (retroperitoneal and inguinal fat pads), brown adipose tissure (BAT) and skeletal muscles (gastrocnemius and soleus muscle) and stomach contents were dissected and weighed. Plasma samples were obtained by centrifuging whole blood at 2000˜3000 g for 10˜20 minutes at 4° C. and stored at −20° C. for further measurement of insulin, HDL, LDL, total cholesterol and triglyceride.
Plasma insulin concentrations were measured by in both studies using the appropriate rat/mouse insulin enzyme-linked immunosorbent assay (ELISA) kit (EZRMI-13K, LINCO Research, St. Charles, Mo.). Blood samples were diluted 1:4 in charcoal stripped mouse serum that was included in the ELISA kit. The rest of the procedure followed the manufacturers instruction. The total fluorescence was detected using an Orion 1 Microplate Luminometer (Berthold Detection Systems, Pforzheim, Germany).
According to manufacturers protocol, cholesterol measurement was an enzymatic method utilizing cholesterol esterase and cholesterol oxidase conversion followed by a Trinder endpoint; Elimination/catalase method was used for HDL measurement; an enzymatic method with a Trinder endpoint was used for triglyceride measurement.
Data from both parts of the Study (single dose and dose response) was analyzed using the standard two-tailed Student's t-test and are expressed below as means and standard errors.

[3] = dose response part, 10 mg/kg, plasma
[4] = dose response part, 30 mg/kg, plasma
[5] = dose response part, 100 mg/kg, plasma
[6] = single dose part, Compound #8 300 mg/kg
[7] = single dose part, Compound #8 300 mg/kg oral once daily 10 days
[8] = single dose part, Compound #8 300 mg/kg, plasma

NS(=O)(=O)NC[C@H]1COc2cc(Cl)ccc2O1 [Compound #8, (2S)-(−)-N-(6-Chloro-2,3-dihydro-benzo[1,4]dioxin-2-ylmethyl)-sulfamide]
Retroperitoneal Fat Weight ([1]; day 11): 1.31 ± 0.07 g
Skeletal Muscle Weight ([1]; day 11): 0.154 ± 0.00 g
Blood Glucose ([1]; day 11, fasted 4 hr): 210 ± 27 mg/dL
HDL Cholesterol ([1]; day 11, plasma): 55.9 ± 3.7 mg/dL
Triglycerides ([1]; day 11, plasma): 98 ± 41 mg/dL
fat to lean mass ratio ([1]; p<0.01 vs vehicle 27.9±1.4): 23.4±0.9
Insulin levels versus vehicle treated animals ([1]; plasma): not statistically different
total cholesterol concentrations elevated relative to vehicle ([2]; Compound #8, dose not given): 18.7%
Brown Adipose Tissue ([2]; dose response part, 10 mg/kg): 0.23 ± 0.01 g
Inguinal fat ([2]; dose response part, 10 mg/kg): 2.15 ± 0.11 g
Insulin ([2]; dose response part, 10 mg/kg): 11.9 ± 2.5 ng/mL
Muscle ([2]; dose response part, 10 mg/kg): 0.140 ± 0.004 g
Ratio (Triglyceride to HDL) ([2]; dose response part, 10 mg/kg): 3.5 ± 0.3
Ratio (fat/muscle) ([2]; dose response part, 10 mg/kg): 25.9 ± 0.8
Retroperitoneal fat ([2]; dose response part, 10 mg/kg): 1.47 ± 0.04 g
Glucose ([2]; dose response part, 10 mg/kg oral once daily 10 days): 420 ± 10 mg/dL
Cholesterol [2, 3]: 92 ± 3 mg/dL
HDL [2, 3]: 47.1 ± 1.5 mg/dL
Triglyceride [2, 3]: 166 ± 13 mg/dL
Brown Adipose Tissue ([2]; dose response part, 30 mg/kg): 0.22 ± 0.01 g
Inguinal fat ([2]; dose response part, 30 mg/kg): 1.97 ± 0.07 g
Insulin ([2]; dose response part, 30 mg/kg): 10.8 ± 2.9 ng/mL
Muscle ([2]; dose response part, 30 mg/kg): 0.141 ± 0.003 g
Ratio (Triglyceride to HDL) ([2]; dose response part, 30 mg/kg): 4.1 ± 0.3
Ratio (fat/muscle) ([2]; dose response part, 30 mg/kg): 24.5 ± 0.5
Retroperitoneal fat ([2]; dose response part, 30 mg/kg): 1.49 ± 0.07 g
Glucose ([2]; dose response part, 30 mg/kg oral once daily 10 days): 439 ± 13 mg/dL
Cholesterol [2, 4]: 95 ± 2 mg/dL
HDL [2, 4]: 49.2 ± 1.7 mg/dL
Triglyceride [2, 4]: 202 ± 18 mg/dL
Brown Adipose Tissue ([2]; dose response part, 100 mg/kg): 0.24 ± 0.00 g
Inguinal fat ([2]; dose response part, 100 mg/kg): 2.05 ± 0.09 g
Insulin ([2]; dose response part, 100 mg/kg): 3.9 ± 1.4 ng/mL
Muscle ([2]; dose response part, 100 mg/kg): 0.140 ± 0.007 g
Ratio (Triglyceride to HDL) ([2]; dose response part, 100 mg/kg): 3.3 ± 0.3
Ratio (fat/muscle) ([2]; dose response part, 100 mg/kg): 26.3 ± 1.0
Retroperitoneal fat ([2]; dose response part, 100 mg/kg): 1.55 ± 0.11 g
hyperinsulinemia decreased compared to vehicle treated mice ([2]; dose response part, 100 mg/kg): 63.5%
Glucose ([2]; dose response part, 100 mg/kg oral once daily 10 days): 394 ± 17 mg/dL
stomach content ([2]; dose response part, 100 mg/kg, control 0.35±0.03 g, p<0.05): 0.51 ± 0.04 g
Cholesterol [2, 5]: 102 ± 3 mg/dL
HDL [2, 5]: 51.7 ± 1.7 mg/dL
Triglyceride [2, 5]: 169 ± 10 mg/dL
food intake and body weight ([2]; dose response part, 10, 30 and 100 mg/kg groups): no differences
Glucose levels reduced compared to vehicle treated mice ([2]; single dose part, 300 mg/kg): 50%
HDL elevated compared to vehicle ([2]; single dose part, 300 mg/kg): 22.8%
plasma triglyceride decreased compared to vehicle ([2]; single dose part, 300 mg/kg): 39.4%
ratio of triglyceride to HDL reduced ([2]; single dose part, 300 mg/kg): 50.2%
stomach content weights versus vehicle at the end of the experiment ([2]; single dose part, 300 mg/kg): two times greater
Brown Adipose Tissue [2, 6]: 0.25 ± 0.01 g
Final weight Body weight [2, 6]: 39 ± 0.9 g
Final weight Stomach contents [2, 6]: 0.52 ± 0.07 g
Inguinal fat [2, 6]: 2.28 ± 0.11 g
Muscle [2, 6]: 0.154 ± 0.00 g
Retroperitoneal fat [2, 6]: 1.31 ± 0.07 g
Total chow consumption Day 1-3 [2, 6]: 14 ± 0.9 g
Total chow consumption Day 4-6 [2, 6]: 14.9 ± 1.1 g
Total chow consumption Day 7-9 [2, 6]: 16 ± 0.6 g
Glucose [2, 7]: 210 ± 27 mg/dL
Insulin [2, 7]: 16.0 ± 2.5 ng/mL
Cholesterol [2, 8]: 108 ± 3 mg/dL
HDL [2, 8]: 55.9 ± 1.2 mg/dL
LDL [2, 8]: 3.4 ± 0.2 mg/dL
Ratio (Triglyceride to HDL) [2, 8]: 1.8 ± 0.3
Triglyceride [2, 8]: 98 ± 13 mg/dL
Ratio (fat/muscle) ([2]; single dose part, Compound #8 300 mg/kg, total inguinal and retroperitoneal fat/muscle weight): 23.4 ± 0.9
